Here are results for 23 compounds from patent US9561231B2 (AbbVie Inc., priority 2012, dated 2017).

Molecules are shown by their SMILES. Where two headings read alike, the source gives them in different places.

The subject of experiment [1] is breast cancer cell line MX-1. Nature of the experiment: MX-1 cell line proliferation assay (3-day). The format is cell-based. Conditions: Homo sapiens, MX1, MX-1 cells, Cell Titer Glo, read-out: Cellular proliferation: EC50. The method, then: The impact of compounds of the Examples on cancer cell proliferation was determined using the breast cancer cell line MX-1 (ATCC) in a 3-day proliferation assay. MX-1 cells were maintained in RPMI supplemented with 10% FBS at 37° C. and an atmosphere of 5% CO2. For compound testing, MX-1 cells were plated in 96-well black bottom plates at a density of 5000 cells/well in 90 μL of culture media and incubated at 37° overnight to allow cell adhesion and spreading. Compound dilution series were prepared in DMSO via a 3-fold serial dilution from 3 mM to 0.1 μM. The DMSO dilution series were then diluted 1:100 in phosphate buffered saline, and 10 μL of the resulted solution were added to the appropriate wells of the MX-1 cell plate. The final compound concentrations in the wells were 3, 1, 0.3, 0.1, 0.03, 0.01, 0.003, 0.001, 0.0003 and 0.0001 μM.
Luminescence readings from the Cell Titer Glo assay were normalized to the DMSO treated cells and analyzed using the GraphPad Prism software with sigmoidal curve fitting to obtain EC50s.

In experiment [2] the target is T1, first (BD1: amino acids K57-E168) bromodomain of BRD4 (Homo sapiens, UniProt O60885).
T1 construct: His-tagged first (BD1: amino acids K57-E168)
Nature of the experiment: TR-FRET bromodomain binding assay, BRD4 BD1. Conditions: Ki calculated from IC50, probe Kd and probe concentration, read-out: TR-FRET Binding Ki: BRD4 (BDI_K57-E168). The essentials:
(§1)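 His-tagged BRD4 BD1 (K57-E168) or BD2 ([…]) displacing an Alexa647-labelled BET-inhibitor probe in 20 mM sodium phosphate pH 6.0, 50 mM NaCl, 1 mM EDTA, 0.01% Triton X-100, 1 mM DTT.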

Experiment [3] concerns the target T2, second (BD2: amino acids E352-E168) bromodomain of BRD4 (Homo sapiens, UniProt O60885).
T2 construct: protocol
Nature of the experiment: TR-FRET bromodomain binding assay, BRD4 BD2. The note with it: Ki calculated from IC50, probe Kd and probe concentration, read-out: TR-FRET Binding Ki: BRD4 (BDII_E352-M457). The essentials: as §1

Where [4] appears, read: TR-FRET assay protocol (A-G, compound concentration range).
Where [5] appears, read: TR-FRET assay protocol (D, E or G) per compound.

A word on the Ki: it is the dissociation constant of the complex between target and ligand, obtained from inhibition or displacement. Regarding `Cn1cc(-c2cc(NS(C)(=O)=O)ccc2Oc2ccc(C(F)(F)F)cc2)ccc1=O` [Example 231, N-{3-(1-methyl-6-oxo-1,6-dihydropyridin-3-yl)-4-[4-(trifluoromethyl)phenoxy]phenyl}methanesulfonamide], the EC50 in experiment [1] (72 h incubation) came out at 911 nM. The figures for the Ki in experiment [2] (setting [4]) and in experiment [3] (setting [4]) were 44.6 nM and 539 nM, respectively.
For `Cn1cc(-c2cc(=O)n(C)nc2-c2ccccc2Oc2ccccc2)cn1` [Example 103, 2-methyl-5-(1-methyl-1H-pyrazol-4-yl)-6-(2-phenoxyphenyl)pyridazin-3(2H)-one], the EC50 in experiment [1] (72 h incubation) was over 3000 nM. In addition, the Ki is 253 nM in experiment [2] (setting [4]) and 109 nM in experiment [3] (setting [4]).
`Cn1ccc(-c2cc(=O)n(C)nc2-c2ccccc2Oc2ccccc2)cc1=O` [Example 56, 2-methyl-5-(1-methyl-2-oxo-1,2-dihydropyridin-4-yl)-6-(2-phenoxyphenyl)pyridazin-3(2H)-one]: the EC50 in experiment [1] (72 h incubation) was found to be 10400 nM. The Ki in experiment [2] (setting [4]) is 2900 nM; in experiment [3] (setting [4]) it was 341 nM.
On to `COCc1ccc(-c2cc(=O)n(C)nc2-c2ccccc2Oc2ccccc2)cc1` [Example 78, 5-[4-(methoxymethyl)phenyl]-2-methyl-6-(2-phenoxyphenyl)pyridazin-3(2H)-one], for which the EC50 in experiment [1] (72 h incubation) is over 3000 nM. Moreover, the figures for the Ki in experiment [2] (setting [4]) and in experiment [3] (setting [4]) were 435 nM and 211 nM, respectively.
For `CN1CCN(Cc2ccc(-c3cc(=O)n(C)nc3-c3ccccc3Oc3ccccc3)cc2)CC1` [Example 61, 2-methyl-5-{4-[(4-methylpiperazin-1-yl)methyl]phenyl}-6-(2-phenoxyphenyl)pyridazin-3(2H)-one], the EC50 in experiment [1] (72 h incubation) stood at 911 nM. Besides, the Ki in experiment [2] (setting [4]) is 33.1 nM; in experiment [3] (setting [4]) it was 48.9 nM.
Consider `CCS(=O)(=O)Nc1ccc(Oc2ccc(F)cc2F)c(-c2cn(C)c(=O)cc2OC2CC3(C2)CN(C(=O)OC(C)(C)C)C3)c1` [Example 325, tert-butyl 6-[(5-{2-(2,4-difluorophenoxy)-5-[(ethylsulfonyl)amino]phenyl}-1-methyl-2-oxo-1,2-dihydropyridin-4-yl)oxy]-2-azaspiro[3.3]heptane-2-carboxylate], for which the EC50 in experiment [1] (72 h incubation) turned out to be 101 nM. The figures for the Ki in experiment [2] (setting [4]) and in experiment [3] (setting [4]) were 30.6 nM and 21.4 nM, respectively.
`Cn1cc(-c2cc(S(N)(=O)=O)ccc2Oc2ccccc2)ccc1=O` [Example 256, 3-(1-methyl-6-oxo-1,6-dihydropyridin-3-yl)-4-phenoxybenzenesulfonamide]: the EC50 in experiment [1] (72 h incubation) was 1060 nM. Besides, the Ki in experiment [2] (setting [4]) was 219 nM; in experiment [3] (setting [4]), 93.6 nM.
In the case of `CC(C)C(O)c1ccc(-c2cc(=O)n(C)nc2-c2ccccc2Oc2ccccc2)cc1` (stereo not drawn) [Example 73, 5-[4-(1-hydroxy-2-methylpropyl)phenyl]-2-methyl-6-(2-phenoxyphenyl)pyridazin-3(2H)-one], the EC50 in experiment [1] (72 h incubation) came to 1130 nM. In addition, the figures for the Ki in experiment [2] (setting [4]) and in experiment [3] (setting [4]) were 462 nM and 307 nM, respectively.
As to `CCCS(=O)(=O)Nc1ccc(Oc2ccc(F)cc2F)c(-c2cn(C)c(=O)cc2OCC)c1` [Example 349, N-[4-(2,4-difluorophenoxy)-3-(4-ethoxy-1-methyl-6-oxo-1,6-dihydropyridin-3-yl)phenyl]propane-1-sulfonamide], the EC50 in experiment [1] (72 h incubation) was 151 nM. The Ki in experiment [2] (setting [4]) was 43.8 nM; in experiment [3] (setting [4]) it was 8.71 nM.
For `Cn1nc(-c2ccccc2Oc2ccccc2)c(-c2cccc(CC#N)c2)cc1=O` [Example 193, {3-[1-methyl-6-oxo-3-(2-phenoxyphenyl)-1,6-dihydropyridazin-4-yl]phenyl}acetonitrile], in that order: 1290 nM, 167 nM and 1010 nM.
`CCC(O)c1ccc(-c2cc(=O)n(C)nc2-c2ccccc2Oc2ccccc2)cc1` (stereo not drawn) [Example 75, 5-[4-(1-hydroxypropyl)phenyl]-2-methyl-6-(2-phenoxyphenyl)pyridazin-3(2H)-one]: the EC50 in experiment [1] (72 h incubation) is 1390 nM. For the same compound, the Ki in experiment [2] (setting [4]) was 264 nM; in experiment [3] (setting [4]), 195 nM.
On to `CC(O)c1ccc(-c2cc(=O)n(C)nc2-c2ccccc2Oc2ccccc2)cc1` (stereo not drawn) [Example 72, 5-[4-(1-hydroxyethyl)phenyl]-2-methyl-6-(2-phenoxyphenyl)pyridazin-3(2H)-one], for which the EC50 in experiment [1] (72 h incubation) was determined as 3750 nM. Further, the figures for the Ki in experiment [2] (setting [4]) and in experiment [3] (setting [4]) were 225 nM and 128 nM, respectively.
For `Cn1cc(-c2cc(NS(C)(=O)=O)ccc2Oc2ccccc2C(F)(F)F)ccc1=O` [Example 236, N-{3-(1-methyl-6-oxo-1,6-dihydropyridin-3-yl)-4-[2-(trifluoromethyl)phenoxy]phenyl}methanesulfonamide], in that order: 501 nM, 14.2 nM and 81.6 nM.
With `CCS(=O)(=O)Nc1ccc(Oc2ccc(F)cc2F)c(-c2cn(C)c(=O)cc2OCCN2CCOCC2)c1` [Example 286, N-[4-(2,4-difluorophenoxy)-3-{1-methyl-4-[2-(morpholin-4-yl)ethoxy]-6-oxo-1,6-dihydropyridin-3-yl]phenyl}ethanesulfonamide], in experiment [1] (72 h incubation), the EC50 is over 3000 nM. Further, the Ki was 82.6 nM in experiment [2] (setting [4]) and 75.9 nM in experiment [3] (setting [4]).
Consider `CCS(=O)(=O)Nc1ccc(Oc2ccc(F)cc2F)c(-c2cn(C)c(=O)cc2OCC2CCNCC2)c1` [Example 399, N-{4-(2,4-difluorophenoxy)-3-[1-methyl-6-oxo-4-(piperidin-4-ylmethoxy)-1,6-dihydropyridin-3-yl]phenyl}ethanesulfonamide], for which the EC50 in experiment [1] (72 hours with compound) was over 3000 nM. For the same compound, the figures for the Ki in experiment [2] (setting [5]) and in experiment [3] (setting [5]) were 31.1 nM and 20.1 nM, respectively.
Regarding `COc1cc(=O)n(C)nc1-c1cc(NS(=O)(=O)CCC(F)(F)F)ccc1Oc1ccccc1` [Example 28, 3,3,3-trifluoro-N-[3-(4-methoxy-1-methyl-6-oxo-1,6-dihydropyridazin-3-yl)-4-phenoxyphenyl]propane-1-sulfonamide], the EC50 in experiment [1] (72 h incubation) is 7620 nM. Also, the Ki in experiment [2] (setting [4]) is 710 nM; in experiment [3] (setting [4]), 227 nM.
In the case of `Cn1nc(-c2ccccc2OCc2ccccc2)ccc1=O` [Example 2, 6-[2-(benzyloxy)phenyl]-2-methylpyridazin-3(2H)-one], the EC50 in experiment [1] (72 h incubation) was found to be 13500 nM. The Ki in experiment [2] (setting [4]) was 11700 nM; in experiment [3] (setting [4]) it was 2860 nM.
Regarding `CCOc1cc(=O)n(C)cc1-c1cc(NS(=O)(=O)CC)ccc1Oc1cc(F)c(F)c(F)c1` [Example 402, N-[3-(4-ethoxy-1-methyl-6-oxo-1,6-dihydropyridin-3-yl)-4-(3,4,5-trifluorophenoxy)phenyl]ethanesulfonamide], the EC50 in experiment [1] (72 hours with compound) worked out at 55.2 nM. Moreover, the Ki in experiment [2] (setting [5]) is 32.3 nM; in experiment [3] (setting [5]) it was 16.6 nM.
Regarding `COc1cc(=O)n(C)nc1-c1cc(NC(C)=O)ccc1Oc1ccccc1` [Example 21, N-[3-(4-methoxy-1-methyl-6-oxo-1,6-dihydropyridazin-3-yl)-4-phenoxyphenyl]acetamide], the EC50 in experiment [1] (72 h incubation) turned out to be 1340 nM. Also, the Ki was 147 nM in experiment [2] (setting [4]) and 103 nM in experiment [3] (setting [4]).
Take `Cn1nc(-c2ccccc2Oc2ccccc2)c(-c2ccc(CCCO)cc2)cc1=O` [Example 101, 5-[4-(3-hydroxypropyl)phenyl]-2-methyl-6-(2-phenoxyphenyl)pyridazin-3(2H)-one]: the EC50 in experiment [1] (72 h incubation) came out at 1130 nM. The figures for the Ki in experiment [2] (setting [4]) and in experiment [3] (setting [4]) were 233 nM and 147 nM, respectively.
On the same counts, the results for `CCS(=O)(=O)Nc1ccc(Oc2ccc(F)cc2F)c(-c2cn(C)c(=O)cc2-c2cnn(C)c2)c1` [Example 342, N-{4-(2,4-difluorophenoxy)-3-[1-methyl-4-(1-methyl-1H-pyrazol-4-yl)-6-oxo-1,6-dihydropyridin-3-yl]phenyl}ethanesulfonamide] are 91.2 nM, 2.21 nM and 0.609 nM.
Take `CCOc1cc(=O)n(C)cc1-c1cc(NS(=O)(=O)CC)ccc1Oc1c(F)cc(Cl)cc1F` [Example 404, N-[4-(4-chloro-2,6-difluorophenoxy)-3-(4-ethoxy-1-methyl-6-oxo-1,6-dihydropyridin-3-yl)phenyl]ethanesulfonamide]: the EC50 in experiment [1] (72 hours with compound) is 24.7 nM. Also, the Ki in experiment [2] (setting [5]) was 11.8 nM; in experiment [3] (setting [5]), 1.43 nM.
For the compound `Cn1nc(-c2ccccc2Oc2ccccc2)c(-c2ccc(CN3CCCCC3)cc2)cc1=O` [Example 67, 2-methyl-6-(2-phenoxyphenyl)-5-[4-(piperidin-1-ylmethyl)phenyl]pyridazin-3(2H)-one], the EC50 in experiment [1] (72 h incubation) was found to be 1730 nM. Moreover, the Ki in experiment [2] (setting [4]) is 70.8 nM; in experiment [3] (setting [4]), 92.5 nM.
